According to ChEMBL document CHEMBL1201862, “PubChem BioAssay data set” (2004):
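Exposure lasted 48 hours, with cells grown in 96-well plates and compounds tested at five concentrations. At the GI50, growth is halved.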 Activity calls are given as the source filed them. Cut-off read from the data, not from the text of the source: active = GI50 up to about 1.1 µM and inactive = higher.

Columns and labels:
Assay in all cases: NCI-60 cell line screen, 48 h
HT-29 = test system: HT-29
LOX IMVI = test system: LOX IMVI
MCF7 = test system: MCF7
SF-539 = test system: SF-539
SF-295 = test system: SF-295
786-0 = test system: 786-0
DU-145 = test system: DU-145
MOLT-4 = test system: MOLT-4
A498 = test system: A498
SW-620 = test system: SW-620
CCRF-CEM = test system: CCRF-CEM
OVCAR-4 = test system: OVCAR-4
UACC-62 = test system: UACC-62
BT-549 = test system: BT-549
ACHN = test system: ACHN
CAKI-1 = test system: CAKI-1
SR = test system: SR
SNB-19 = test system: SNB-19
MDA-MB-231 = test system: MDA-MB-231
HOP-92 = test system: HOP-92

Row | Structure (SMILES) | GI50 (HT-29) | GI50 (LOX IMVI) | GI50 (MCF7) | GI50 (SF-539) | GI50 (SF-295) | GI50 (786-0) | GI50 (DU-145) | GI50 (MOLT-4) | GI50 (A498) | GI50 (SW-620) | GI50 (CCRF-CEM) | GI50 (OVCAR-4) | GI50 (UACC-62) | GI50 (BT-549) | GI50 (ACHN) | GI50 (CAKI-1) | GI50 (SR) | GI50 (SNB-19) | GI50 (MDA-MB-231) | GI50 (HOP-92)
1 | NC(N)=NCCC[C@H](N)C(=O)NCC(=O)N[C@@H](CC(=O)O)c1ncc(NC(=O)C(F)(F)F)o1 | > 25 µM (inactive) | > 25 µM (inactive) | > 25 µM (inactive) | > 25 µM (inactive) | > 25 µM (inactive) | > 25 µM (inactive) | > 25 µM (inactive) | > 25 µM (inactive) | > 25 µM (inactive) | > 25 µM (inactive) | > 25 µM (inactive) | > 25 µM (inactive) | > 25 µM (inactive) | > 25 µM (inactive) | > 25 µM (inactive) |  |  |  |  | 
2 | C=C1CC[C@@H](C)[C@](C)(CCc2ccoc2)C/C=C\C=C/1C(=O)O | 36.7 µM (inactive) | 21.1 µM (inactive) | 33.3 µM (inactive) | 19.6 µM (inactive) | 38.8 µM (inactive) | 46.6 µM (inactive) |  | 27 µM (inactive) | 58.6 µM (inactive) | 32.8 µM (inactive) | 28.4 µM (inactive) | 39.5 µM (inactive) | 31.2 µM (inactive) | 19.5 µM (inactive) | 53.2 µM (inactive) | 31.6 µM (inactive) | 23 µM (inactive) | > 100 µM (inactive) | 59.2 µM (inactive) | 62.2 µM (inactive)
3 | COP1(=S)OCC2CCC[C@@H]2O1 (some centres not stated) | > 100 µM (inactive) |  |  | > 100 µM (inactive) | > 100 µM (inactive) | > 100 µM (inactive) | > 100 µM (inactive) | > 100 µM (inactive) | > 100 µM (inactive) | > 100 µM (inactive) | > 100 µM (inactive) | > 100 µM (inactive) | > 100 µM (inactive) | > 100 µM (inactive) | > 100 µM (inactive) | > 100 µM (inactive) | > 100 µM (inactive) | > 100 µM (inactive) | > 100 µM (inactive) | > 100 µM (inactive)
4 | C[C@@]1(Br)C[C@@](C)(Cl)[C@@H](Br)CC1/C=C/Cl (some centres not stated) | 16.1 µM (inactive) | 17.6 µM (inactive) | 16.6 µM (inactive) | 15.2 µM (inactive) | 14.4 µM (inactive) | 16.6 µM (inactive) |  | 13.3 µM (inactive) |  | 26.9 µM (inactive) | 11.1 µM (inactive) | 24.8 µM (inactive) | > 10 µM (inactive) | 19.1 µM (inactive) | 18.1 µM (inactive) |  | 14.1 µM (inactive) | 18.6 µM (inactive) | 20.1 µM (inactive) | 
5 | COc1ccc2c(c1)c(=O)c1c(NCCCN(C)C)ccc3ncn2c31 | 1.13 µM (inactive) | 1.54 µM (inactive) | 0.714 µM (active) | 3.93 µM (inactive) | 1.47 µM (inactive) | 1.68 µM (inactive) | 4.66 µM (inactive) | 0.215 µM (active) | 11.2 µM (inactive) | 1.01 µM (active) | 1.61 µM (inactive) | 1.15 µM (inactive) | 11.4 µM (inactive) | 17.6 µM (inactive) | 0.659 µM (active) | 5.68 µM (inactive) | 2.19 µM (inactive) | 3.95 µM (inactive) |  | 4.13 µM (inactive)
6 | O=C(NC1=C(Cl)C(=O)c2ccccc2C1=O)C(=O)C(C(=O)c1ccc2ccccc2c1)C1OC(=O)c2ccccc21 (configuration not stated) | 4.07 µM (inactive) | 1.08 µM (active) | 2.74 µM (inactive) | 2.95 µM (inactive) | 3.3 µM (inactive) | 5.92 µM (inactive) | 10.6 µM (inactive) | 2.06 µM (inactive) | 4.68 µM (inactive) | 5.13 µM (inactive) | 2.87 µM (inactive) | 6.97 µM (inactive) | 1.73 µM (inactive) | 3.48 µM (inactive) | 7.29 µM (inactive) | 6.34 µM (inactive) | 3.31 µM (inactive) | 6.03 µM (inactive) |  | 
7 | CC1=COC(C)(C=C(C#N)C#N)CC1 (configuration not stated) | > 100 µM (inactive) |  | 36.6 µM (inactive) | 25.1 µM (inactive) | > 100 µM (inactive) | > 100 µM (inactive) | > 100 µM (inactive) | 40.9 µM (inactive) | 27 µM (inactive) | 50.7 µM (inactive) | 35.3 µM (inactive) | > 100 µM (inactive) | 57.7 µM (inactive) |  | > 100 µM (inactive) |  | 31 µM (inactive) | > 100 µM (inactive) | 67.5 µM (inactive) | > 10 µM (inactive)
8 | CCOc1cc(CC[N+](C)(C)C)c2c(ccc3ccc(OC)c(OC)c32)c1OC | > 100 µM (inactive) |  |  |  | > 100 µM (inactive) | > 100 µM (inactive) | > 100 µM (inactive) | > 10 µM (inactive) |  | > 100 µM (inactive) |  | > 10 µM (inactive) | > 100 µM (inactive) | 19.4 µM (inactive) | > 100 µM (inactive) | > 100 µM (inactive) | > 100 µM (inactive) | > 100 µM (inactive) | > 100 µM (inactive) | > 100 µM (inactive)
9 | CO/C(N)=C(C#N)/N=C/c1ccco1 | > 100 µM (inactive) | > 100 µM (inactive) | > 100 µM (inactive) |  | > 100 µM (inactive) | > 100 µM (inactive) | > 100 µM (inactive) | > 100 µM (inactive) | > 100 µM (inactive) | > 100 µM (inactive) | 67.8 µM (inactive) | > 100 µM (inactive) | > 100 µM (inactive) | > 100 µM (inactive) | > 100 µM (inactive) | > 100 µM (inactive) |  |  | > 100 µM (inactive) | > 100 µM (inactive)
10 | COc1ccc(/C=N/Nc2nc3ccccc3c(=O)n2-c2ccccc2)c(OCc2ccccc2)c1 | > 100 µM (inactive) | > 100 µM (inactive) | 0.226 µM (active) | 14.5 µM (inactive) | > 100 µM (inactive) | > 100 µM (inactive) | > 100 µM (inactive) | > 100 µM (inactive) | > 100 µM (inactive) | > 100 µM (inactive) | > 100 µM (inactive) | > 100 µM (inactive) | 70.6 µM (inactive) |  | > 100 µM (inactive) | 34.8 µM (inactive) | > 100 µM (inactive) | > 100 µM (inactive) | 88.7 µM (inactive) | 19.3 µM (inactive)
11 | C=CCCC1CCCCC/C1=N\N(C)C (configuration not stated) | > 100 µM (inactive) | > 100 µM (inactive) | > 100 µM (inactive) | > 100 µM (inactive) | > 100 µM (inactive) | > 100 µM (inactive) | > 100 µM (inactive) | > 100 µM (inactive) | > 100 µM (inactive) | > 100 µM (inactive) | > 100 µM (inactive) | > 100 µM (inactive) | > 100 µM (inactive) |  | > 100 µM (inactive) | > 100 µM (inactive) | > 100 µM (inactive) | > 100 µM (inactive) | > 100 µM (inactive) | > 100 µM (inactive)
12 | Cc1nc(Cl)nc(Cl)c1C | > 100 µM (inactive) | > 100 µM (inactive) | > 100 µM (inactive) | > 100 µM (inactive) | > 100 µM (inactive) | > 100 µM (inactive) |  | > 100 µM (inactive) |  | > 100 µM (inactive) | > 100 µM (inactive) | > 100 µM (inactive) |  | 75.7 µM (inactive) | > 100 µM (inactive) |  | > 100 µM (inactive) | > 100 µM (inactive) |  | 
13 | Cn1c2ccc3cc2c(=S)c2cc(ccc21)OCCOCCOCCOCCOCCOCCO3 | > 10 µM (inactive) | > 10 µM (inactive) | > 10 µM (inactive) | > 10 µM (inactive) | > 10 µM (inactive) | > 10 µM (inactive) | > 10 µM (inactive) | > 10 µM (inactive) | > 10 µM (inactive) | > 10 µM (inactive) | > 10 µM (inactive) | > 10 µM (inactive) |  | > 10 µM (inactive) | > 10 µM (inactive) | > 10 µM (inactive) | > 10 µM (inactive) | > 10 µM (inactive) |  | > 10 µM (inactive)
14 | Nc1ccc(S(=O)(=O)NCCS(=O)(=O)O)cc1 | > 100 µM (inactive) | > 100 µM (inactive) |  |  | > 100 µM (inactive) | > 100 µM (inactive) | > 100 µM (inactive) | > 100 µM (inactive) | > 100 µM (inactive) | > 100 µM (inactive) | > 100 µM (inactive) | > 100 µM (inactive) | > 100 µM (inactive) | > 100 µM (inactive) | > 100 µM (inactive) | > 100 µM (inactive) | > 100 µM (inactive) | > 100 µM (inactive) | > 100 µM (inactive) | > 100 µM (inactive)
15 | COc1ccc(C2C(C#N)=C(S)N(C3OC(COC(C)=O)C(OC(C)=O)C(OC(C)=O)C3OC(C)=O)C(c3ccccc3)=C2C(C)=O)cc1 (configuration not stated) | > 100 µM (inactive) | > 100 µM (inactive) | 63 µM (inactive) | 76.7 µM (inactive) | > 100 µM (inactive) | > 100 µM (inactive) | > 100 µM (inactive) | 64.4 µM (inactive) | > 100 µM (inactive) |  | > 100 µM (inactive) | > 100 µM (inactive) | 41.8 µM (inactive) | > 100 µM (inactive) | > 100 µM (inactive) | > 100 µM (inactive) |  | > 100 µM (inactive) | > 100 µM (inactive) | > 100 µM (inactive)
16 | Clc1ccc(OCc2nnc3sc(-c4ccc(-c5ccc(Cl)cc5Cl)o4)nn23)cc1 | > 100 µM (inactive) | > 100 µM (inactive) |  |  | 89.1 µM (inactive) | > 100 µM (inactive) | > 100 µM (inactive) | > 100 µM (inactive) | > 100 µM (inactive) | > 100 µM (inactive) | > 100 µM (inactive) | > 100 µM (inactive) |  | > 100 µM (inactive) | > 100 µM (inactive) | > 100 µM (inactive) | > 100 µM (inactive) | > 100 µM (inactive) | > 100 µM (inactive) | 36.9 µM (inactive)
